Source: patent US20220298163A1, “BTK INHIBITORS WITH IMPROVED DUAL SELECTIVITY” (BEIGENE, LTD., priority 2017, published 2022)

What was measured:
[1] = biological target: T1, Tec (Homo sapiens, UniProt P42680); assay: Biochemical kinase selectivity: IC50 determination of Tec; details: for IC50: TR-FRET, 280 μM ATP; for Fold of Tec/Btk: ratio of IC50 values
T1 sequence (P42680 1-631): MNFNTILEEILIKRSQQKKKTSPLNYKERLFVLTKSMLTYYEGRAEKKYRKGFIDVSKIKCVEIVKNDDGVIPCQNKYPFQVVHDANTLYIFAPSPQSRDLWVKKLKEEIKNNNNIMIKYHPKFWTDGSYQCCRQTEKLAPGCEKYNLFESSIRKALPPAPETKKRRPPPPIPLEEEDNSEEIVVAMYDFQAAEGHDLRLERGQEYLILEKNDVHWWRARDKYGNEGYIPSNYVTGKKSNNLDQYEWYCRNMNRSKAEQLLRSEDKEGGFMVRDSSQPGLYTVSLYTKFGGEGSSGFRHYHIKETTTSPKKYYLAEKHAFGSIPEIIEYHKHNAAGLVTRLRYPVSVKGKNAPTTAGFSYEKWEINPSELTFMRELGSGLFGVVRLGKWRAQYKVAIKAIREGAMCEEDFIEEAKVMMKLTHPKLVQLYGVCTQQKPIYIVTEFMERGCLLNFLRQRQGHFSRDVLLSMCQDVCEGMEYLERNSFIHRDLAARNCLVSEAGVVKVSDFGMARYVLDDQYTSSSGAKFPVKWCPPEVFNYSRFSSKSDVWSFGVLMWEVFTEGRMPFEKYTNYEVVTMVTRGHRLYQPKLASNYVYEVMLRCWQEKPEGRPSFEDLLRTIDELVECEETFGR

[2] = biological target: T2, Btk kinase (aa2-659, Carna Biosciences) (Homo sapiens, UniProt Q06187); assay: Btk kinase enzymatic assay (TR-FRET); type: biochemical; details: for IC50: TR-FRET, 30 μM ATP, compound incubated with kinase 60 minutes
T2 construct: purchased Carna Biosciences
T2 sequence (Q06187 2-659): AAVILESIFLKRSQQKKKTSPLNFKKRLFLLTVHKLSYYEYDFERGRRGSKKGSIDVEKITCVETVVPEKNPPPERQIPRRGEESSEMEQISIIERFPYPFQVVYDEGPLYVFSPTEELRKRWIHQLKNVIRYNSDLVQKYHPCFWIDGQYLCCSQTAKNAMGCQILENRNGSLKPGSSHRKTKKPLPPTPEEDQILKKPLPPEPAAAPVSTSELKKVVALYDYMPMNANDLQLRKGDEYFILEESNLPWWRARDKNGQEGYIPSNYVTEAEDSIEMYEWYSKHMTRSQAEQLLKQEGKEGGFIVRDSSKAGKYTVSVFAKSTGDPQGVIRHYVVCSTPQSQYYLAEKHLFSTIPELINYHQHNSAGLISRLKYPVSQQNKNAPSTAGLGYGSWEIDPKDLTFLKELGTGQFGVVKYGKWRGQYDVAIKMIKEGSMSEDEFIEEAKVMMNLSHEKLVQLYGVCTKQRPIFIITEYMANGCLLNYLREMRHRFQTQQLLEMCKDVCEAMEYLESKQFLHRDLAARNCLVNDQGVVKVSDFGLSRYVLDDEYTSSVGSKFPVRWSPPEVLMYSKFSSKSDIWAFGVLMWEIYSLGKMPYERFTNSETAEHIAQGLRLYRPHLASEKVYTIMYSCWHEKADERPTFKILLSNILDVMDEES

SMILES | IC50 [1] [nM] | Fold of Tec/Btk [1] [fold] | IC50 [2] [nM] | affinity / inhibitory activity for Btk (in words) [2]
C=CC(=O)N1CCC(C2CCNc3c(C(N)=O)c(-c4ccccc4)nn32)CC1 (stereo not drawn) [Example 144, reference compound] | 491 | 3.5 |  | 
C=CC(=O)N1CCC(C2CCNc3c(C(N)=O)c(-c4cc(OC)cc(OC)c4)nn32)CC1 (stereo not drawn) [Example A9, 7-(1-acryloylpiperidin-4-yl)-2-(3,5-dimethoxyphenyl)-4,5,6,7-tetrahydropyrazolo[1,5-a]pyrimidine-3-carboxamide] |  |  | 41 | 
C=CC(=O)N1CCC(C2CCNc3c(C(N)=O)c(-c4cc(OC)c(-c5ccccc5)c(OC)c4)nn32)CC1 (stereo not drawn) [Example A10, 7-(1-acryloylpiperidin-4-yl)-2-(2,6-dimethoxy-[1,1′-biphenyl]-4-yl)-4,5,6,7-tetrahydropyrazolo[1,5-a]pyrimidine-3-carboxamide] |  |  | 51 | 
C=CC(=O)N1CCC(C2CCNc3c(C(N)=O)c(-c4cc(OCC)c(C)c(OCC)c4)nn32)CC1 (stereo not drawn) [Example A13, 7-(1-acryloylpiperidin-4-yl)-2-(3,5-diethoxy-4-methylphenyl)-4,5,6,7-tetrahydropyrazolo[1,5-a]pyrimidine-3-carboxamide] |  |  | > 100 | 
C=CC(=O)N1CCC(C2CCNc3c(C(N)=O)c(-c4cc(OC)c(OC)c(OC)c4)nn32)CC1 (stereo not drawn) [Example A14, 7-(1-acryloylpiperidin-4-yl)-2-(3,4,5-trimethoxyphenyl)-4,5,6,7-tetrahydropyrazolo[1,5-a]pyrimidine-3-carboxamide] | > 1000 |  |  | 
C=CC(=O)N1CCC(C2CCNc3c(C(N)=O)c(-c4cc(Cl)c(OC)c(Cl)c4)nn32)CC1 (stereo not drawn) [Example A15, 7-(1-acryloylpiperidin-4-yl)-2-(3,5-dichloro-4-methoxyphenyl)-4,5,6,7-tetrahydropyrazolo[1,5-a]pyrimidine-3-carboxamide] | 1000 | 50 | 20 | poor affinity for Btk
C=CC(=O)N1CCC(C2CCNc3c(C(N)=O)c(-c4cc(Cl)c(C5CC5)c(Cl)c4)nn32)CC1 (stereo not drawn) [Example A24, 7-(1-acryloylpiperidin-4-yl)-2-(3,5-dichloro-4-cyclopropylphenyl)-4,5,6,7-tetrahydropyrazolo[1,5-a]pyrimidine-3-carboxamide] |  |  | 28 | 
C=CC(=O)N1CCC(C2CCNc3c(C(N)=O)c(-c4cc(Cl)c(Br)c(OC(F)(F)F)c4)nn32)CC1 (stereo not drawn) [Example A26, 7-(1-acryloylpiperidin-4-yl)-2-(4-bromo-3-chloro-5-(trifluoromethoxy)phenyl)-4,5,6,7-tetrahydropyrazolo[1,5-a]pyrimidine-3-carboxamide] |  |  | 41 | 
C=CC(=O)N1CCC(C2CCNc3c(C(N)=O)c(-c4cc(OC)c(-c5cc[nH]n5)c(OC)c4)nn32)CC1 (stereo not drawn) [Example A27, 7-(1-acryloylpiperidin-4-yl)-2-(3,5-dimethoxy-4-(1H-pyrazol-3-yl)phenyl)-4,5,6,7-tetrahydropyrazolo[1,5-a]pyrimidine-3-carboxamide] | > 1000 |  | 18 | 
C=CC(=O)N1CCC(C2CCNc3c(C(N)=O)c(-c4cc(OC)c(-c5ccsc5)c(OC)c4)nn32)CC1 (stereo not drawn) [Example A28, 7-(1-acryloylpiperidin-4-yl)-2-(3,5-dimethoxy-4-(thiophen-3-yl)phenyl)-4,5,6,7-tetrahydropyrazolo[1,5-a]pyrimidine-3-carboxamide] | 369 | 23 | 16 | 
C=CC(=O)N1CCC(C2CCNc3c(C(N)=O)c(-c4cc(C)c(C5CC5)c(C)c4)nn32)CC1 (stereo not drawn) [Example A29, 7-(1-acryloylpiperidin-4-yl)-2-(4-cyclopropyl-3,5-dimethylphenyl)-4,5,6,7-tetrahydropyrazolo[1,5-a]pyrimidine-3-carboxamide] | > 1000 |  | 16 | 
C=CC(=O)N1CCC(C2CCNc3c(C(N)=O)c(-c4cc(C)cc(C)c4)nn32)CC1 (stereo not drawn) [Example A30, 7-(1-acryloylpiperidin-4-yl)-2-(3,5-dimethylphenyl)-4,5,6,7-tetrahydropyrazolo[1,5-a]pyrimidine-3-carboxamide] | > 1000 |  | 53 | 
C=CC(=O)N1CCC(C2CCNc3c(C(N)=O)c(-c4cc(OC)c(-c5c(C)noc5C)c(OC)c4)nn32)CC1 (stereo not drawn) [Example A31, 7-(1-acryloylpiperidin-4-yl)-2-(4-(3,5-dimethylisoxazol-4-yl)-3-dimethoxyphenyl)-4,5,6,7-tetrahydropyrazolo[1,5-a]pyrimidine-3-carboxamide] |  |  | > 100 | 
C=CC(=O)N1CCC(C2CCNc3c(C(N)=O)c(-c4cc(OC)c(C5CCOCC5)c(OC)c4)nn32)CC1 (stereo not drawn) [Example A32, 7-(1-acryloylpiperidin-4-yl)-2-(3,5-dimethoxy-4-(tetrahydro-2H-pyran-4-yl)phenyl)-4,5,6,7-tetrahydropyrazolo[1,5-a]pyrimidine-3-carboxamide] |  |  | 52 | 
C=CC(=O)N1CCC(C2CCNc3c(C(N)=O)c(-c4cc(OC)c(C5=CCCCC5)c(OC)c4)nn32)CC1 (stereo not drawn) [Example A40, 7-(1-acryloylpiperidin-4-yl)-2-(2,6-dimethoxy-2′,3′,4′,5′-tetrahydro-[1,1′-biphenyl]-4-yl)-4,5,6,7-tetrahydropyrazolo[1,5-a]pyrimidine-3-carboxamide] | 253 | 23 | 11 | 
C=CC(=O)N1CCC(C2CCNc3c(C(N)=O)c(-c4cc(Cl)c(C5CC5)c(OCC)c4)nn32)CC1 (stereo not drawn) [Example A48, 7-(1-acryloylpiperidin-4-yl)-2-(3-chloro-4-cyclopropyl-5-ethoxyphenyl)-4,5,6,7-tetrahydropyrazolo[1,5-a]pyrimidine-3-carboxamide] |  |  | 16 | 
C=CC(=O)N1CCC(C2CCNc3c(C(N)=O)c(-c4cc(Cl)c(C)c(OCC)c4)nn32)CC1 (stereo not drawn) [Example A49, 7-(1-acryloylpiperidin-4-yl)-2-(3-chloro-5-ethoxy-4-methylphenyl)-4,5,6,7-tetrahydropyrazolo[1,5-a]pyrimidine-3-carboxamide] |  |  | 18 | 
C=CC(=O)N1CCC(C2CCNc3c(C(N)=O)c(-c4cc(OC)c(C=C)c(OC)c4)nn32)CC1 (stereo not drawn) [Example A51, 7-(1-acryloylpiperidin-4-yl)-2-(3,5-dimethoxy-4-vinylphenyl)-4,5,6,7-tetrahydropyrazolo[1,5-a]pyrimidine-3-carboxamide] | 136 |  |  | 
C=CC(=O)N1CC(C2CCNc3c(C(N)=O)c(-c4cc(Cl)c(C)c(Cl)c4)nn32)C1 (stereo not drawn) [Example B1, 7-(1-acryloylazetidin-3-yl)-2-(3,5-dichloro-4-methylphenyl)-4,5,6,7-tetrahydropyrazolo[1,5-a]pyrimidine-3-carboxamide] |  |  | 13 | 
C=CC(=O)N1CC2CNc3c(C(N)=O)c(-c4cc(OC)c(OC)c(OC)c4)nn3C2C1 (stereo not drawn) [Example C2, 7-acryloyl-2-(3,4,5-trimethoxyphenyl)-5,5a,6,7,8,8a-hexahydro-4H-pyrazolo[1,5-a]pyrrolo[3,4-e]pyrimidine-3-carboxamide] |  |  | 34 | 
C=CC(=O)N1CCC2C(CNc3c(C(N)=O)c(-c4cc(OC)c(C)c(OC)c4)nn32)C1 (stereo not drawn) [Example D1, 7-acryloyl-2-(3,5-dimethoxy-4-methylphenyl)-4,5,5a,6,7,8,9,9a-octahydropyrazolo[1,5-a]pyrido[3,4-e]pyrimidine-3-carboxamide] |  |  | 10 | 
C=CC(=O)N1CCC2Nc3c(C(N)=O)c(-c4cc(OC)c(C)c(OC)c4)nn3CC2C1 (stereo not drawn) [Example D2, 7-acryloyl-2-(3,5-dimethoxy-4-methylphenyl)-4,4a,5,6,7,8,8a,9-octahydropyrazolo[1,5-a]pyrido[4,3-d]pyrimidine-3-carboxamide] | > 1000 |  | 63 | 
C=CC(=O)NCC1CCNc2c(C(N)=O)c(-c3cc(OC)c(C)c(OC)c3)nn21 (stereo not drawn) [Example E1, 7-(acrylamidomethyl)-2-(3,5-dimethoxy-4-methylphenyl)-4,5,6,7-tetrahydropyrazolo[1,5-a]pyrimidine-3-carboxamide] |  |  | 33 | 
C=CC(=O)N1CCC2(CC1)CC(C1CCNc3c(C(N)=O)c(-c4cc(OC)c(C)c(OC)c4)nn31)C2 (stereo not drawn) [Example F1, 7-(7-acryloyl-7-azaspiro[3.5]nonan-2-yl)-2-(3,5-dimethoxy-4-methylphenyl)-4,5,6,7-tetrahydropyrazolo[1,5-a]pyrimidine-3-carboxamide] |  |  | > 100 | 
C=CC(=O)N1CC2CCC(C1)C2C1CCNc2c(C(N)=O)c(-c3cc(OC)c(C)c(OC)c3)nn21 (stereo not drawn) [Example G1, 7-(3-acryloyl-3-azabicyclo[3.2.1]octan-8-yl)-2-(3,5-dimethoxy-4-methylphenyl)-4,5,6,7-tetrahydropyrazolo[1,5-a]pyrimidine-3-carboxamide] |  |  | 12 | 
C=CC(=O)N1CC2(CC(C3CCNc4c(C(N)=O)c(-c5cc(OC)c(C)c(OC)c5)nn43)C2)C1 (stereo not drawn) [Example H1, 7-(2-acryloyl-2-azaspiro[3.3]heptan-6-yl)-2-(3,5-dimethoxy-4-methylphenyl)-4,5,6,7-tetrahydropyrazolo[1,5-a]pyrimidine-3-carboxamide] |  |  | 35 | 
C=CC(=O)N1CCC(C2CCNc3c(C(N)=O)c(-c4ccc(Cl)cc4)nn32)CC1 (stereo not drawn) [reference compound] |  |  | 22 | 
